According to patent US7179800B2 (priority 2002, dated 2007):
Like-named read-outs stand apart in the source and are kept apart here.

How the values were obtained:
[1] = system: Male ICR mice; assay: Tail-flick antinociception (TF, % MPE) in mice; assay type: in vivo, mouse; details: for ED50: Mus musculus, iv
Experimental: (§1) Male ICR mice (25–32 g), obtained from Harlan (Dublin, Va.), were housed in groups of five. All animals were kept in a temperature-controlled (20–22° C.) environment with a 12-hour light-dark cycle (lights on at 7 a.m.). Separate mice were used for testing each drug dose in the in vivo behavioral procedures. Brain tissue for binding studies was obtained from male Sprague-Dawley rats (150–200 g) purchased from Harlan Laboratories (Dublin, Va.).
(§2) Measurement of spontaneous activity in mice occurred in standard activity chambers interfaced with a Digiscan Animal Activity Monitor (Omnitech Electronics, Inc., Columbus, Ohio). A standard tail-flick apparatus and a digital thermometer (Fisher Scientific, Pittsburgh, Pa.) were used to measure antinociception and rectal temperature, respectively
(§3) Resorcinols were synthesized in our labs (Organix, Inc., Woburn, Mass.) according to the procedure specified below and were suspended in a vehicle of absolute ethanol, Emulphor-620 (Rhone-Poulenc, Inc., Princeton, N.J.), and saline in a ratio of 1:1:18. Drugs were administered to the mice intravenously (i.v.) in the tail vein at a volume of 0.1 ml/10 g.
(§4) Prior to testing in the behavioral procedures, mice were acclimated to the experimental setting (ambient temperature 22–24° C.) overnight. Pre-injection control values were determined for rectal temperature and tail-flick latency (in sec). […] Tail-flick latency was measured at 20 min post-injection. Maximum latency of 10 sec was used. Antinociception was calculated as percent of maximum possible effect {% MPE=[(test−control latency)/(10-control)]×100}. Control latencies typically ranged from 1.5 to 4.0 sec. At 30 min post-injection, rectal temperature was measured This value was expressed as the difference between control temperature (before injection) and temperatures following drug administration (° C.). Different mice (n=5–6 per dose) were tested for each dose of each compound. Each mouse was tested in each of the 3 procedures.
(§5) Based on data obtained from numerous previous studies with cannabinoids, maximal cannabinoid effects in each procedure were estimated as follows: 90% inhibition of spontaneous activity, 100% MPE in the tail flick procedure, and −6° C. change in rectal temperature. ED50's were defined as the dose at which half maximal effect occurred. For drugs that produced one or more cannabinoid effect, ED50's were calculated separately using least-squares linear regression on the linear part of the dose-effect curve for each measure in the mouse tetrad, plotted against log10 transformation of the dose. For the purposes of potency comparison, potencies were expressed as μmol/kg.

[2] = system: Male ICR mice; assay: Change in rectal temperature (RT) in mice; assay type: in vivo, mouse; details: for ED50: Mus musculus, iv
Experimental: as §1, §2, §3, §4, §5

[3] = target: T1, CB2 receptor (Homo sapiens, UniProt P34972); assay: CB2 binding procedure: displacement of [3H]CP-55,940 from membranes of transfected CHO cells; details: for Ki: means ± SEM, [3H]CP-55,940, transfected CHO cell membranes, read-out: Ki (nM) CB2
T1 construct: expressed in transfected cells; host or cells: CHO cells, G418-selected transfected line
Experimental: Membranes for CB2 binding were obtained from CHO cells. The transfected cell line was maintained in Dublecco's Modified Eagle Medium (Gibco BRL, Grand Island, N.Y.) with 10% fetal clone II (HyClone Laboratories, Inc., Logan, Utah) plus 0.3 to 0.5 mg/ml G418 (to maintain selective pressure) under 5% CO2 at 37% C. Cells were harvested with 1 mM EDTA in phosphate-buffered saline and were centrifuged at 1000×g for 5 min at 4% C. The supernatant was saved and the P1 pellet was resuspended in centrifugation buffer. Homogenization and centrifugation were repeated twice and the combined supernatant fractions were centrifuged at 40,000×g for 30 min at 4% C. The P2 pellet was resuspended in centrifugation buffer 2 (Tris HCl, 50 mM; EDTA, 1 mM; and MgCl2, 3 mM, pH 7.4) to a protein concentration of approximately 2 mg/ml. Protein concentrations were determined by the method of Bradford (1976) using Bio-Rad Protein Assay (Bio-Rad, Richmond, Calif.) and BSA standards (fatty acid free, Sigma Chemical Co., St. Louis, Mo.). The membrane preparation was divided into amounts convenient for binding assays and frozen rapidly in dry ice and stored at −80% C.
Binding was initiated by the addition of 50 μg of quickly thawed P2 membranes to test tubes containing [^3H]CP-55,940 (final reaction concentration 0.5 nM), an appropriate concentration of unlabeled CP-55,940 or test drug, and sufficient quantity of assay buffer (50 mM Tris-HCl, 1 mM EDTA, 3 mM MgCl2, 5 mg/ml bovine serum albumin, pH 7.4) to bring the total incubation volume to 0.5 ml. Concentration of [^3H]CP-55,940 in saturation studies ranged from 50 to 10,000 pM. Nonspecific binding was determined by the addition of 1 μM unlabeled CP-55,940. CP-55,940 and all cannabinoid analogs were prepared by suspension in assay buffer from a 1 mg/ml ethanolic stock without evaporation of the ethanol (final concentration of no more than 0.4%). In competition studies, analog concentrations ranged from 0.1 nM to 10 μM. After incubation at 30% C for 1 hr, binding was terminated by the addition of 2 ml of ice-cold wash buffer (50 mM Tris-HCl and 1 mg/ml BSA) and vacuum filtration through pre-treated filters in a 12-well sampling manifold (Millipore, Bedford, Mass.). Reaction vessels were washed once with 2 ml of ice-cold wash buffer. Filters were placed into 7-ml plastic scintillation vials (RPI Corp., Mount Prospect, Ill.) with 4 ml of Budget-Solve (RPI Corp.). After shaking for 30 min, the radioactivity present was determined by liquid scintillation spectrometry. Three reaction vessels were used for each drug concentration in each assay. The results represent the combined data of three independent experiments. All assays were performed in siliconized test tubes, which were prepared by air drying (12 hr) inverted borosilicate tubes after two rinses with a 0.1% solution of AquaSil (Pierce, Rockford, Ill.). The GF/C glass-fiber filters (2.4 cm, Baxter, McGaw Park, Ill.) were pre-treated in a 0.1% solution of pH 7.4 polyethylenimine (Sigma Chemical Co.) for at least 6 hr.
(§6) In addition, multiple linear regression was used to calculate the overall degree of relationship between CB1 binding affinity and potency in the mouse measures for all active cannabinoids. […] Ki values for CB1 and CB2 binding were obtained from Scatchard displacement analysis as determined via EBDA program of the KELL software package (Biosoft, Milltown, N.J.).

[4] = system: Male ICR mice; assay: Lethality noted in the mouse behavioral procedures; assay type: in vivo; details: Table 6; @ 30 (mg/kg)
Experimental: as §3, §4

[5] = system: Male ICR mice; assay: Suppression of spontaneous activity (SA) in mice; assay type: in vivo, mouse; details: for ED50: Mus musculus, iv
Experimental: as §1, §2, §3, §4, §5

[6] = target: T2, CB1 receptor (Rattus norvegicus, UniProt P20272); assay: CB1 binding procedure: displacement of [3H]CP 55,940 from rat whole-brain P2 membranes; parameters: whole brain was homogenized and centrifuged; from tissue; host or cells: rat whole brain, P2 membrane fraction; details: means ± SEM; [3H]CP 55,940, rat brain membranes; read-out: Ki (nM) CB1
Experimental: as §1
The methods used for tissue preparation and binding have been described previously (Compton et al., 1993) and are similar to those described by Devane et al. (1988). All assays, as described briefly below, were performed in triplicate, and the results represent the combined data from three to six individual experiments.
Following decapitation and rapid removal of the brain, whole brain was homogenized and centrifuged. The resulting pellet was termed P1. The supernatant was saved and combined with the two subsequent supernatants obtained from washing of the P1 pellet. The combined supernatant fractions were centrifuged, resulting in the P2 pellet. After further incubation and centrifuging, this pellet was resuspended in assay buffer to a protein concentration of approximately 2 mg/ml. The membrane preparation was quickly frozen in a bath solution of dry ice and 2-methylbutane (Sigma Chemical Co., St. Louis, Mo.), then stored at −80° C. for no more than 2 weeks. Prior to performing a binding assay an aliquot of frozen membrane was rapidly thawed and protein values determined by the method of Bradford (1976).
Binding was initiated by the addition of 150 μg of P2 membrane to test tubes containing 1 nM of [^3H] CP 55,940 (79 Ci/mmol) and a sufficient quantity of buffer to bring the total incubation volume to 1 ml. Nonspecific binding was determined by the addition of 1 μM unlabeled CP 55,940. Following incubation at 30° C. for 1 hr, binding was terminated by addition of ice cold buffer and vacuum filtration through pretreated filters in a 12-well sampling manifold (Millipore, Bedford, Mass.). After washing, filters were placed into plastic scintillation vials (Packard, Downer Grove, Ill.) and shaken. The quantity of radioactivity present was determined by liquid scintillation spectrometry.
as §6

[7] = target: T2, CB1 receptor; details: values from Hanu et al 1999; ligand [3H]HU-243; cited from earlier work
[8] = mice, i.v., 95% confidence limits in parentheses, read-out: ED50 TF (antinociceptive effect in tail flick assay)
[9] = mice, i.v., 95% confidence limits in parentheses, read-out: ED50 RT (rectal temperature)
[10] = mice, i.v., 95% confidence limits in parentheses, read-out: ED50 SA (suppression of spontaneous activity)

T2 sequence (P20272 whole entry): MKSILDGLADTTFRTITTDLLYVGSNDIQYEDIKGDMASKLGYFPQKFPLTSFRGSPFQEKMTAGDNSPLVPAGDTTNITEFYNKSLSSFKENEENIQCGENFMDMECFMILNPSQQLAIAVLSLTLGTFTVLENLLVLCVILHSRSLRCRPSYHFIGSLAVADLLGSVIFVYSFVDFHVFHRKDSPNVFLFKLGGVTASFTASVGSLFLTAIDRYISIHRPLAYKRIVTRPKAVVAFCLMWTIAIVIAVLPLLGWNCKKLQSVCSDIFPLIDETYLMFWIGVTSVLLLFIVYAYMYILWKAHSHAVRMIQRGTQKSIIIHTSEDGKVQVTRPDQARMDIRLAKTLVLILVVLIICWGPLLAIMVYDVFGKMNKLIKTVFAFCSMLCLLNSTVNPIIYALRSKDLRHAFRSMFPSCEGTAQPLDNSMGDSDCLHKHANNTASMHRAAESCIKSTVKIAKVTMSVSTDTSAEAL
T1 sequence (P34972 whole entry): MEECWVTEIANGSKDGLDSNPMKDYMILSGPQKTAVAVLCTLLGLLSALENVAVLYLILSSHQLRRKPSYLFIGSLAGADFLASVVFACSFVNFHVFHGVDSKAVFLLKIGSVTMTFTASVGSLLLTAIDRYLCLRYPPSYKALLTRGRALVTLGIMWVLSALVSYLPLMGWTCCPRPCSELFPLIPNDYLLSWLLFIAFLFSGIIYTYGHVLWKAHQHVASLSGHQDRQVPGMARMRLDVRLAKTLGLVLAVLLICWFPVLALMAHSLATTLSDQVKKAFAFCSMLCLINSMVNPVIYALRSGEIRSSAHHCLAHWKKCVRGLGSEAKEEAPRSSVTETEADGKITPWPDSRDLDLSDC

Row | SMILES | T.F. % effect at dose ([1]; Table 6, @ 10 (mg/kg)) | TF percent effect (% MPE) at the highest dose ([1]; mice, i.v., 30 mg/kg) | R.T. effect at dose ([2]; Table 6, @ 10 (mg/kg)) [°C] | RT effect at the highest dose (change in rectal temperature) ([2]; mice, i.v., 30 mg/kg) | Ki [3] [nM] | Lethality at dose [4] | S.A % effect at dose, stim. ([5]; Table 6, stimulation, @ 10 (mg/kg)) [% stim.] | SA percent effect at the highest dose ([5]; mice, i.v., 30 mg/kg, % inhibition of activity of vehicle group) | Ki [6] [nM] | ED50 [1, 8] [µmol/kg] | ED50 [2, 9] [µmol/kg] | CB1/CB2 (ratio of Ki) ([3]; CB1 Ki divided by CB2 Ki) | ED50 [5, 10] [µmol/kg] | ED50 ([1]; Table 6, mice, i.v., read-out: T.F. ED50) [mg/kg] | ED50 ([2]; Table 6, mice, i.v., read-out: R.T. ED50) [mg/kg] | ED50 ([5]; Table 6, mice, i.v., read-out: S.A ED50) [mg/kg] | Ki [7] [nM]
1 | CCCCCCC(C)(C)c1cc(O)c(C2CCN(C)CC2)c(O)c1 [O-1662, 2-(1-Methylpiperidin-4-yl)-5-(1′,1′-dimethylheptyl)-re-sorcinol] | 7 @ 10% | 30%(30) | 1 | −3(30) °C | 5420 ± 1100 | Lethal | 77 | 87%(30) | > 10000 | – | – | – | – | – | – | – | –
2 | CCCCCCC(C)(C)c1ccc(-c2cc(CO)ccc2C(C)C)c(O)c1 [O-1601, 3-1′,1′-Dimethylheptyl-6-(2-isopropyl-5-hydroxy-methylphenyl)-phenol] | – | – | – | – | 3 ± 0.4 | – | – | – | 5 ± 0.6 | 1.1 | 1.6 | 2 | 1.1 | – | – | – | –
3 | CCCCCCC(C)(C)c1cc(O)c(C2CCCC2)c(O)c1 [O-1424, 2-(Cyclopentyl)-dimethylheptyl-resorcinol] | – | – | – | – | 7 ± 0.4 | – | – | – | 95 ± 6 | 13 | 13 | – | 27 | 4.48 | 4.24 | 8.29 | –
4 | CCCCCCC(C)(C)c1cc(OC)c([C@@H]2C=C(CO)[C@@H]3C[C@H]2C3(C)C)c(OC)c1 [HU-308] | – | – | – | – | – | – | – | – | – | – | – | – | – | – | – | – | > 10000
